Assay results as given in patent US9364474B2, “Method for treatment of neurologic dysfunction” (MedDEV, Inc., priority 2004, dated 2016).
Entries after “also recorded” stand apart in the source; their conditions may differ. Like-named read-outs stand apart in the source and are kept apart here.

How the values were obtained:
Autistic children = conditions: cited from earlier work
schizophrenic patients = conditions: Shepherd and Watt 1956; 0.75 mg per day; cited from earlier work
[1] = test system: patient diagnosed with chronic schizophrenia; assay: Case example: patient with chronic schizophrenia, transdermal reserpine spray (with prior medication history); format: in vivo, human
patient with Autism = assay: Case examples: patients with Autism (ASD), transdermal reserpine (with prior medication history); format: in vivo, human; conditions: for outcome of prior reserpine treatment: reserpine 0.01 mg/day
Description: The treatment composition is suitably applied in a single daily dose, e.g., 0.01 mg of the MAO-A agonist in 0.05 ml of spray solution applied once every morning.
Prior to administration of the present invention (transdermal reserpine), the patient's parents were provided with an informed consent documenting the potential risks, benefits and alternatives to this treatment. The patient was started on a dose of Reserpine at a 4× dilution resulting in a total dose of 0.01 mg. […] They were also given approximately 1400 mg of Calcium every morning.

[2] = test system: patient suffering from depression
Description: The treatment composition is suitably applied in a single daily dose, e.g., 0.01 mg of the MAO-A agonist in 0.05 ml of transdermal cream applied once every morning. Caffeine may also be included in the composition to compensate for the anti-hypertensive effect of the preferred reserpine; the caffeine may suitably be included in an amount from about 50-100 mg/dose.
Treatment was in the form of 0.01 mg of reserpine per 0.05 ml of transdermal cream, applied transdermally once a day in the morning.
The treatment consisted of 0.01 mg of reserpine per 0.05 ml of cream, applied transdermally by rubbing the cream into the skin once a day in the morning.
The treatment consisted of 0.01 mg of the reserpine per 0.05 ml of cream, applied transdermally by rubbing the cream into the skin once a day in the morning.
The patient discontinued the use of nortriptyline and the same day started the treatment of the present invention, using 0.01 mg of the reserpine per 0.05 ml cream, applied transdermally by rubbing the cream into the skin once a day in the morning.
The patient then started the treatment of the present invention, using 0.01 mg of the MAO-A activity stimulator (reserpine) per 0.05 ml cream, applied transdermally by rubbing the cream into the skin once a day in the morning.

aldehyde dehydrogenase = conditions: literature; cited from earlier work
[3] = in the human body; cited from earlier work
[4] = test system: resting and evoked activity of the brain of patient with Autism; assay: Quantitative Electroencephalogram (qEEG, Neuroguide 2.5) in ASD patient; format: in vivo, human; conditions: ASD Example One
Description: In a paper by Thatcher et al, an Autistic signature was reported. […] Analysis was conducted using Neuroguide 2.5, a widely accepted and statistically valid instrument (Thatcher et al, 2003).

MAO-A = conditions: Youdim & Sandler (1968); cited from earlier work
[5] = Schizophrenia Example One, first day
[6] = Schizophrenia Example One, fourth day
[7] = Schizophrenia Example One, next 2 days
[8] = ASD Example Three, 0.01 mg per day
[9] = ASD Example Three, continued 0.01 mg per day
[10] = ASD Example Two, 0.01 mg per day

## COC(=O)[C@H]1[C@H]2C[C@@H]3c4[nH]c5cc(OC)ccc5c4CCN3C[C@H]2C[C@@H](OC(=O)c2cc(OC)c(OC)c(OC)c2)[C@@H]1OC [reserpine]
Autistic children; Lehman et al 1957, oral
  average optimum dose: 5 mg per day
Autistic children; Lehman et al 1957, oral, improvements only within this range, per day
  optimum dose: 3 to 7 mg
Autistic children; Macready 2001, doses of 0.25-1.8 mg/day
  effectiveness in autism: may be effective in autism
Schizophrenic patients
  effect of low dose in schizophrenia: resembling more an inert substance than the drug
[1]; Schizophrenia Example One: person, transdermal reserpine via metered sprayer on forearm, Abilify stopped the day before
  side effects after first application: feeling severely depressed; also recorded: rapid heart rate, and anxiety
[1]; Schizophrenia Example One, first application
  time to onset of feeling severely depressed after rubbing the spray into skin: ≤ 30 s
[1]; [5]
  effect on symptoms of schizophrenia (report): more focused, they had clearer thoughts
  time to resolution of side effect symptoms after applying the spray: 2 to 3 h
[1]; [6]
  side effects: none of these side effect symptoms occurred
  task completion: completed a list of chores that they gave them without supervision
[1]; [7]
  severity of returning side effects: slightly less severe
  time to resolution of side effect symptoms after applying the dose: ≤ 2 h
[1]; Schizophrenia Example One, sixth day, 2,000 mg calcium omitted
  behavior when required calcium was not taken: became very aggressive
[1]; without taking additional calcium daily
  effect on blood calcium without additional calcium: can cause hypocalcemia
Patient with Autism; ASD Example One: person, transdermal, total dose of 0.01 mg
  effect of starting dose: some increased hyperactivity
Patient with Autism; ASD Example One, 0.005 mg
  motor hyperactivity: mild increase in motor hyperactivity
Patient with Autism; ASD Example One, 0.005 mg, no quetiapine administration needed
  temper outbursts during the course of treatment: no temper outbursts
Patient with Autism; ASD Example One, after three weeks of treatment
  anxiety: markedly decreased amount of anxiety
Patient with Autism; ASD Example One, after three weeks, reduced dose 0.005 mg transdermal
  social interactions, language and attention: significant improvements in their social interactions, language, and attention; also recorded: started using several meaningful sentences in succession
Patient with Autism; ASD Example Three: person, transdermal reserpine 0.01 mg per day, immediately
  “stimming” (banging of the plastic sticks): reduced to only infrequent occurrence
Patient with Autism; ASD Example Three, 0.01 mg
  speech after 2 months: shouted out very clearly the words, “I'm hungry”
Patient with Autism; [8]
  behavior by the second day of administration: left their clothes on without supervision
  social response and language comprehension (parents' report): will now look at them and smile when spoken to and appears to understand language better
  speech within the first 30 days: started making some new speech sounds
Patient with Autism; [9]
  continued course: subtle slow improvements in social behavior, speech, attention span, and awareness and interaction with their environment
  side effects: without any side effects
Patient with Autism; ASD Example Two: person, transdermal reserpine 0.01 mg per day, immediately
  attention span: increase attention span
Patient with Autism; [10]
  affectionate behavior: become more affectionate toward their parents and grandparents
  speech: all of their speech is clear and comprehensible
  time they could stay focused on a task: ≥ 30 min
Patient with Autism; ASD Example Two, 0.015 mg per day, off gluten free diet
  effect of increased dose: very hyperactive and aggressive
Patient with Autism; ASD Example Two, back to 0.01 mg per day, off gluten free diet
  outcome after dose decreased back: maintained their improvements in speech, social behavior, and attention span
Patient with Autism; Homeopathic Example One: person
  outcome of prior reserpine treatment: Substantial improvements
Patient with Autism; Homeopathic Example Two: person
  outcome of prior reserpine treatment: substantial improvement
Patient with Autism; as a result of reserpine administration
  urinary calcium excretion: increase in the amount of calcium excreted in the urine
[2]; Depression Example Five, 0.002 mg, other symptoms persisted
  effect on symptoms of depression: alleviation of their symptoms of feeling hopelessness and “doom and gloom”
[2]; Depression Example Five, 0.004 mg, third day, fatigue and insomnia still experienced
  effect on symptoms of depression: improvement in their emotions
[2]; Depression Example Five, 0.006 mg per day
  effect on symptoms of depression: all of the patient's symptoms of depression were successfully alleviated
[2]; Depression Example Five, eight consecutive months, 0.006 mg per day transdermally
  return of symptoms on long-term treatment: no return of the symptoms of depression
[2]; Depression Example Four: person, 0.01 mg of reserpine per 0.05 ml cream transdermally once a day, nortriptyline discontinued
  time to resolution of fatigue and loss of energy after first dose: one
[2]; Depression Example Four, 0.02 mg for one week
  outcome after dose increase during stressful event: insomnia and fatigue resolved
[2]; Depression Example Four, 10 months of consecutive daily treatment, 0.01 mg
  return of symptoms on long-term treatment: no return of the symptoms listed above
[2]; Depression Example Four, returned to 0.01 mg dose
  outcome after return to the lower dose: no return of any symptoms of depression
[2]; Depression Example One: 250-pound person, 0.01 mg of reserpine per 0.05 ml of transdermal cream once a day
  time to significant improvement in state of mind after first application: four
[2]; Depression Example One, 0.01 mg transdermal once a day
  weight lost during the treatment: > 20 pounds
[2]; Depression Example One, 0.01 mg transdermal, consecutive 24-hour dosing regimen
  status of prior symptoms of depression on continued treatment: remains free of all of the prior symptoms
[2]; Depression Example One, dose forgotten for a day
  time from last dose to beginning return of symptoms: about 32 hours
[2]; Depression Example One, dose missed for 72 hours
  time to freedom from all symptoms after applying the missed dose: one
[2]; Depression Example Three
  marijuana use during the treatment: has not used any marijuana during the treatment
[2]; Depression Example Three: 220-pound person, depression and substance abuse, 0.01 mg of reserpine per 0.05 ml of cream transdermally once a day
  time to resolution of pessimism and negative mood aspects after first dose: two
[2]; Depression Example Three, after first dose 0.01 mg
  cravings for substances of abuse: no cravings for marijuana or alcohol
[2]; Depression Example Three, dose decreased to 0.0075 mg of reserpine
  outcome after dose decrease: symptoms resolved that same day
[2]; Depression Example Three, first 60 days
  weight lost: five
[2]; Depression Example Two
  weight loss after resuming the treatment: 1-2 pound per week
[2]; Depression Example Two: 175-pound person, 0.01 mg of reserpine per 0.05 ml of cream transdermally once a day
  time to increased energy after applying the dose: one
[2]; Depression Example Two, 0.01 mg transdermal
  time to resolution of all perceptible symptoms after first application (except slight problems with memory): ≤ 10 h
[2]; Depression Example Two, 30 consecutive days
  return of symptoms during treatment: no return of their symptoms
[2]; Depression Example Two, after 10 day interruption
  time to resolution of symptoms after resuming the treatment: one
[2]; Depression Example Two, first 50 days
  total weight lost: 15 pounds
[2]; Depression Example Two, treatment interrupted for 10 days
  symptoms during interruption of treatment: all of the symptoms returned
[2]; each of the depression examples
  time to improvement or resolution of symptoms after first application: 1 to 4 h
[2]; human, in vivo
  course of headache after dose reduction: resolved immediately
  effect of too high a dose: undesirable increase in the symptoms of depression
  negative side effects: no significant negative side effects
  side effect at starting dose: headache that did not resolve spontaneously the first day
Aldehyde dehydrogenase
  effect on aldehyde dehydrogenase: inhibit aldehyde dehydrogenase
[3]
  therapeutic half-life: 33 h
[4]; after three weeks of treatment (FIG. 5)
  change in quantitative Electroencephalogram: significant change in their quantitative Electroencephalogram
[4]; increased after starting HBOT, after starting transdermal reserpine
  High Beta activity in qEEG: appears to subside
MAO-A
  effect on MAO-A: activate MAO-A
